Like-named read-outs stand apart in the source and are kept apart here. Each block holds one compound with its values, some of them ahead of it.
Key:
[1] = rat, in vivo, po
[2] = tested on: 3T3-L1 cells; assay: Adipocyte differentiation and Oil Red O staining; format: cell-based; settings: 1 or 10 μM, Oil Red O staining on day 8
[3] = in vivo; settings: male, Sprague-Dawley, rat, po
[4] = tested on: UMR106 cells; assay: MTT cell proliferation assay; format: cell-based; settings: 0.01, 0.1, 1, 10 μM, 24 h
[5] = tested on: UMR 106 cells; assay: Alkaline phosphatase; format: cell-based; settings: 0.01, 0.1, 1 μM, 48 h
[6] = male, Sprague-Dawley, rat, serum, po, 3 g/kg
[7] = male, Sprague-Dawley, rat, serum, po, 6 g/kg
[8] = male, Sprague-Dawley, rat, serum, po, 12 g/kg
[9] = rat serum, oral XLGB extract 3 g/kg, n = 6
[10] = rat serum, oral XLGB extract 6 g/kg, n = 6
[11] = rat serum, oral XLGB extract 12 g/kg, n = 6
[12] = male, Sprague-Dawley, rat, in vivo, po, 3 g/kg
[13] = male, Sprague-Dawley, rat, in vivo, po, 6 g/kg
[14] = male, Sprague-Dawley, rat, in vivo, po, 12 g/kg

Compound: bavachinin
AUC0–∞ [9]: 53.60 ± 27.93 ng·h/mL
AUC(0-t) [9]: 31.63 ± 11.39 ng·h/mL
Cmax [9]: 10.25 ± 2.84 ng/mL
MRT0–t [9]: 6.26 ± 4.26 h
MRT0–∞ [9]: 18.47 ± 15.68 h
Tmax [9]: 0.50 ± 0 h
t1/2 [9]: 11.51 ± 9.48 h
AUC0–∞ [10]: 406.85 ± 56.64 ng·h/mL
AUC(0-t) [10]: 346.62 ± 36.95 ng·h/mL
Cmax [10]: 20.41 ± 2.63 ng/mL
MRT0–t [10]: 19.50 ± 3.03 h
MRT0–∞ [10]: 28.15 ± 8.89 h
Tmax [10]: 1.25 ± 1.04 h
t1/2 [10]: 19.08 ± 8.31 h
AUC0–∞ [11]: 379.76 ± 59.32 ng·h/mL
AUC(0-t) [11]: 343.30 ± 61.62 ng·h/mL
Cmax [11]: 36.00 ± 4.29 ng/mL
MRT0–t [11]: 13.56 ± 2.69 h
MRT0–∞ [11]: 18.40 ± 3.38 h
Tmax [11]: 1.58 ± 0.38 h
t1/2 [11]: 12.57 ± 3.06 h

Compound: CC1(C)CC[C@]2(C(=O)O[C@@H]3O[C@H](CO[C@@H]4O[C@H](CO)[C@@H](O)[C@H](O)[C@H]4O)[C@@H](O)[C@H](O)[C@H]3O)CC[C@]3(C)C(=CC[C@@H]4[C@@]5(C)CC[C@H](O[C@@H]6OC[C@H](O)[C@H](O)[C@H]6O)[C@@](C)(CO)[C@@H]5CC[C@]43C)[C@@H]2C1 [Akebia saponin D, akebia saponin D]
AUC0–∞ ([1]; 6 g/kg): 756.83 ± 140.72 ng·h/mL
AUC(0-t) ([1]; 6 g/kg): 731.52 ± 131.54 ng·h/mL
MRT0–t ([1]; 6 g/kg): 2.41 ± 0.25 h
MRT0–∞ ([1]; 6 g/kg): 2.63 ± 0.25 h
AUC0–∞ ([1]; 12 g/kg): 2658.47 ± 241.31 ng·h/mL
AUC(0-t) ([1]; 12 g/kg): 2642.49 ± 233.18 ng·h/mL
MRT0–t ([1]; 12 g/kg): 5.03 ± 0.32 h
MRT0–∞ ([1]; 12 g/kg): 5.91 ± 0.50 h

Compound: COc1ccc2c(c1O)-c1c(O)c(OC)cc3c1[C@H](C2)[N+](C)(C)CC3 [Magnoflorine, magnoflorine]
AUC(0-inf) [6]: 320 ± 96.9 ng·h/mL
AUC(0-t) [6]: 264 ± 76.2 ng·h/mL
Cmax [6]: 31.8 ± 4.77 ng/mL
MRT inf [6]: 26.2 ± 8.51 h
MRT last [6]: 16.4 ± 4.54 h
Tmax [6]: 0.5 h
half-life [6]: 1200 ± 506 min
AUC(0-inf) [7]: 4610 ± 572 ng·h/mL
AUC(0-t) [7]: 2600 ± 249 ng·h/mL
Cmax [7]: 652 ± 64.6 ng/mL
MRT inf [7]: 44.4 ± 6.88 h
MRT last [7]: 17.3 ± 0.63 h
Tmax [7]: 0.67 ± 0.26 h
half-life [7]: 1310 ± 252 min
AUC(0-inf) [8]: 3480 ± 121 ng·h/mL
AUC(0-t) [8]: 3330 ± 130 ng·h/mL
Cmax [8]: 1160 ± 102 ng/mL
MRT inf [8]: 9.43 ± 0.47 h
MRT last [8]: 6.67 ± 0.32 h
Tmax [8]: 1.67 ± 0.26 h
half-life [8]: 804 ± 45 min

Compound: CC(C)=CCc1cc2c(cc1O)oc(=O)c1c3ccc(O)cc3oc21 [Psoralidin, psoralidin]
effect on adipogenesis of 3T3-L1 cells [2]: obviously inhibited adipocyte formation
AUC0–∞ ([1]; 6 g/kg): 11.58 ± 0.94 ng·h/mL
AUC(0-t) ([1]; 6 g/kg): 8.80 ± 1.38 ng·h/mL
MRT0–t ([1]; 6 g/kg): 1.78 ± 0.36 h
MRT0–∞ ([1]; 6 g/kg): 3.13 ± 0.36 h
AUC0–∞ ([1]; 12 g/kg): 34.27 ± 16.04 ng·h/mL
AUC(0-t) ([1]; 12 g/kg): 27.78 ± 13.97 ng·h/mL
MRT0–t ([1]; 12 g/kg): 2.05 ± 0.45 h
MRT0–∞ ([1]; 12 g/kg): 2.78 ± 0.68 h

Compound: C=C[C@H]1[C@H](O[C@@H]2O[C@H](CO)[C@@H](O)[C@H](O)[C@H]2O)OC=C2C(=O)OCC[C@H]21 [Sweroside, sweroside]
AUC(0-inf) ([3]; 3 g/kg): 452 ± 50.3 ng·h/mL
AUC(0-t) ([3]; 3 g/kg): 313 ± 39.1 ng·h/mL
Cmax ([3]; 3 g/kg): 35.6 ± 2.27 ng/mL
MRT inf ([3]; 3 g/kg): 31.7 ± 4.64 h
Tmax ([3]; 3 g/kg): 70.2 ± 15.6 min
half-life ([3]; 3 g/kg): 1280 ± 200 min
AUC(0-inf) ([3]; 6 g/kg): 690 ± 110 ng·h/mL
AUC(0-t) ([3]; 6 g/kg): 598 ± 59.4 ng·h/mL
Cmax ([3]; 6 g/kg): 135 ± 10.2 ng/mL
MRT inf ([3]; 6 g/kg): 16.7 ± 7.3 h
MRT last ([3]; 6 g/kg): 8.31 ± 2.11 h
half-life ([3]; 6 g/kg): 828 ± 442 min
AUC(0-inf) ([3]; 12 g/kg): 1330 ± 97.9 ng·h/mL
AUC(0-t) ([3]; 12 g/kg): 1150 ± 35.3 ng·h/mL
Cmax ([3]; 12 g/kg): 301 ± 19.4 ng/mL
MRT inf ([3]; 12 g/kg): 19.2 ± 6.86 h
MRT last ([3]; 12 g/kg): 8.25 ± 0.83 h
Tmax ([3]; 12 g/kg): 30 min
half-life ([3]; 12 g/kg): 1420 ± 739 min
effect on adipogenesis of 3T3-L1 cells [2]: excellent bioactivities
effect on proliferation of UMR 106 cells [4]: excellent bioactivities
effect on alkaline phosphatase (ALP) activity of UMR 106 cells [5]: excellent bioactivities

Compound: O=c1ccc2ccc3occc3c2o1 [Isopsoralen, isopsoralen]
AUC(0-inf) [12]: 2470 ± 494 ng·h/mL
AUC(0-t) [12]: 2390 ± 460 ng·h/mL
Cmax [12]: 270 ± 35 ng/mL
MRT inf [12]: 8.73 ± 3.76 h
MRT last [12]: 7.49 ± 2.83 h
Tmax [12]: 3.5 ± 2.49 h
half-life [12]: 413 ± 293 min
AUC(0-t) [13]: 15100 ± 1290 ng·h/mL
Cmax [13]: 1140 ± 100 ng/mL
MRT inf [13]: 12.2 ± 0.75 h
MRT last [13]: 11.7 ± 0.83 h
Tmax [13]: 3.67 ± 0.52 h
half-life [13]: 407 ± 65.4 min
AUC(0-inf) [14]: 19900 ± 2020 ng·h/mL
AUC(0-t) [14]: 19400 ± 2000 ng·h/mL
Cmax [14]: 1240 ± 72.2 ng/mL
MRT inf [14]: 14.2 ± 1.43 h
MRT last [14]: 13.3 ± 0.43 h
Tmax [14]: 1.67 ± 0.41 h
half-life [14]: 412 ± 206 min

Second part, the compound after the results:

AUC(0-inf) [6]: 7.24 ± 6.25 ng·h/mL
AUC(0-t) [6]: 2.1 ± 0.78 ng·h/mL
Cmax [6]: 1.46 ± 0.38 ng/mL
MRT last [6]: 1.57 ± 0.81 h
Tmax [6]: 0.5 h
half-life [6]: 377 ± 435 min
AUC(0-inf) [7]: 60.6 ± 41 ng·h/mL
AUC(0-t) [7]: 41.1 ± 19 ng·h/mL
Cmax [7]: 10.7 ± 0.59 ng/mL
MRT inf [7]: 19.3 ± 20.7 h
MRT last [7]: 9.13 ± 9.19 h
Tmax [7]: 0.58 ± 0.2 h
half-life [7]: 673 ± 547 min
AUC(0-inf) [8]: 127 ± 32.3 ng·h/mL
AUC(0-t) [8]: 110 ± 30.3 ng·h/mL
Cmax [8]: 18.4 ± 5.4 ng/mL
MRT inf [8]: 17.2 ± 9.5 h
MRT last [8]: 8.79 ± 2.43 h
half-life [8]: 971 ± 619 min
Compound: CC(C)=CCc1cc(-c2coc3cc(O)ccc3c2=O)ccc1O [Neobavaisoflavone, neobavaisoflavone]

AUC0–∞ ([1]; 3 g/kg): 86.37 ± 67.67 ng·h/mL
AUC(0-t) ([1]; 3 g/kg): 10.62 ± 3.66 ng·h/mL
MRT0–t ([1]; 3 g/kg): 5.60 ± 5.20 h
MRT0–∞ ([1]; 3 g/kg): 51.11 ± 29.69 h
AUC0–∞ ([1]; 6 g/kg): 227.72 ± 52.75 ng·h/mL
AUC(0-t) ([1]; 6 g/kg): 166.50 ± 26.45 ng·h/mL
MRT0–t ([1]; 6 g/kg): 16.55 ± 4.24 h
MRT0–∞ ([1]; 6 g/kg): 33.27 ± 11.40 h
AUC0–∞ ([1]; 12 g/kg): 442.39 ± 107.76 ng·h/mL
AUC(0-t) ([1]; 12 g/kg): 386.15 ± 84.00 ng·h/mL
MRT0–t ([1]; 12 g/kg): 14.73 ± 1.76 h
MRT0–∞ ([1]; 12 g/kg): 20.65 ± 3.78 h
Compound: corylin

AUC(0-inf) [6]: 2810 ± 701 ng·h/mL
AUC(0-t) [6]: 2740 ± 682 ng·h/mL
Cmax [6]: 290 ± 23.3 ng/mL
MRT inf [6]: 8.4 ± 2.93 h
MRT last [6]: 7.55 ± 2.44 h
Tmax [6]: 4.5 ± 1.22 h
half-life [6]: 383 ± 224 min
AUC(0-inf) [7]: 18500 ± 529 ng·h/mL
AUC(0-t) [7]: 18300 ± 511 ng·h/mL
Cmax [7]: 1380 ± 150 ng/mL
MRT inf [7]: 12.2 ± 0.9 h
MRT last [7]: 11.8 ± 0.99 h
Tmax [7]: 2.92 ± 1.28 h
half-life [7]: 407 ± 60 min
AUC(0-inf) [8]: 28400 ± 877 ng·h/mL
AUC(0-t) [8]: 28300 ± 899 ng·h/mL
Cmax [8]: 1910 ± 118 ng/mL
MRT inf [8]: 13.3 ± 1.18 h
MRT last [8]: 13.2 ± 1.14 h
half-life [8]: 252 ± 25.2 min
Compound: O=c1ccc2cc3ccoc3cc2o1 [Psoralen, psoralen]

AUC0–∞ ([1]; 3 g/kg): 69.33 ± 37.54 ng·h/mL
AUC(0-t) ([1]; 3 g/kg): 21.70 ± 3.40 ng·h/mL
MRT0–t ([1]; 3 g/kg): 1.41 ± 1.01 h
MRT0–∞ ([1]; 3 g/kg): 20.72 ± 19.70 h
AUC0–∞ ([1]; 6 g/kg): 1365.29 ± 80.31 ng·h/mL
AUC(0-t) ([1]; 6 g/kg): 1361.31 ± 79.46 ng·h/mL
MRT0–t ([1]; 6 g/kg): 1.45 ± 0.08 h
MRT0–∞ ([1]; 6 g/kg): 1.47 ± 0.08 h
AUC0–∞ ([1]; 12 g/kg): 4527.69 ± 474.54 ng·h/mL
AUC(0-t) ([1]; 12 g/kg): 4397.49 ± 435.63 ng·h/mL
MRT0–t ([1]; 12 g/kg): 3.07 ± 0.63 h
MRT0–∞ ([1]; 12 g/kg): 5.10 ± 4.50 h
Compound: COc1ccc(-c2oc3c(CC=C(C)C)c(O[C@@H]4O[C@H](CO)[C@@H](O)[C@H](O)[C@H]4O)cc(O)c3c(=O)c2O[C@@H]2O[C@@H](C)[C@H](O)[C@@H](O)[C@H]2O[C@@H]2O[C@@H](C)[C@H](O)[C@@H](O)[C@H]2O)cc1 [Epimedin C, epimedin C]
